“Also recorded” adds a separate entry of the source.
Columns and labels:
[1] = tested on: carrageenin pleurisy; test: rat carrageenin pleurisy model of acute inflammation (Example 1); type: in vivo; settings: for Exudate Volume / Total Cells 10^6: mean ± s.e. mean; for effect on inflammation (exudate volumes and cell numbers) at 6 hours: compared to controls; for increase of exudate volume (cell exudate) compared to vehicle control: SnPP 2 x 40 μmoles/kg s.c.
Description: Male Wistar rates 200±20 grams (Tuck & Sons Ltd., Essex, UK) were used for inflammation. Animals were administered either with 15 mg/kg Ferriprotoporphrin IX chloride (FePP) by intravenous injection--18 hours before inflammation or with 2 doses of 40 μmoles/kg Tin protoporphyrin dichloride (SnPP) by sub-cutaneous injection--18 hours and at the time of inflammation induction (porphyrins were obtained from Porphyrin Products Inc., Logan, Utah). Drugs were prepared in 0.1N NaOH and mixed 1:1 with saline, these were then adjusted to pH 7.4, drug vehicle. The total volume injected was 0.2 ml. Control animals received vehicle only.
Carrageenin pleurisy was induced in rats and cell pellet prepared as previously described by Tomlinson et al.
Results are expressed as the mean ± s.e. mean. Statistical analysis was determined by Mann-Whitney U-test, with a P value of <0.05 considered significant.
The effect of heme-oxygenase inhibitor Tin protoporphyrin dichloride (SnPP) and inducer ferriprotoporphyrin IX chloride (FePP) on acute inflammation was examined. Treatment animals received either 2 doses of 40 μmoles/kg SnPP s.c.--18 and 0 hours before induction of inflammation, or 1 doses of 15 mg/kg FePP i.v--18 before inflammation. Treatment animals were compared to control animals which had received vehicle only by the appropriate route.***P<0.001.

[2] = tested on: carrageenin pleurisy; test: rat carrageenin pleurisy, dose response of HO modulators (Example 2); type: in vivo; settings: for effect on the inflammatory lesion compared to vehicle control at 6 hours: 6 hours after carrageenin, PMNs phase (data not shown); for effect on inflammation at 24 hours (dose dependence): 3, 10 or 30 μmoles/kg
Description: Animals received 2 doses of either 3, 10 or 30 μmoles/kg SnPP (a HO inhibitor) or vehicle control--18 hours and at the time of inflammation induction. Animals received 1 dose of either 3, 10 or 30 μmoles/kg FePP (a HO inducer) or vehicle control--18 hours before induction of inflammation, n=9.
Male Wistar rats 200+20 grams were anaesthetized with halothane and 150 ul of a 1% carrageenin solution in 0.9% NaCl injected into the pleural cavity. Exudates were collected 2, 6, 12, 24 and 48 hours after injection of the irritant by pleural lavage with 1 ml protease inhibitory buffer containing: trisodium citrate 3.15%, phenylmethylsulfonyl fluoride 1 mM (Sigma Chemical Co., Poole, UK), pepstatin A 1.5 mM (Sigma) and leupeptin 0.2 mM (Sigma) in 10 mM phosphate buffered (PBS) pH 7.3. Any exudates with blood contamination were rejected. Cells were counted using a Coulter counter, model DN (Coulter Electronics Ltd., Luton, UK). Each sample was centrifuged at 800 g for 10 minutes and the resultant cell pellet prepared as outlined below.
Results are expressed as the mean ± s.e.mean for (n) experiments. Statistical analysis was determined Student's unpaired t test, with a P value of <0.05 considered significant.
To investigate whether increased HO activity was not only associated with tissue protection but also involved in resolving acute inflammation we used an HO inhibitor, tin protoporphyrin (SnPP), administered sub-cutaneously 18 hours before and at the time of carrageenin injection, and an HO inducer, ferriprotoporphyrin IX chloride (FePP), given […] 18 hours before induction of the inflammation (Maines MD et al., FASEB J. 1988; 2:2557-2568).

[3] = tested on: heme-oxygenase; test: HO activity of 24 hour inflammatory cells after porphyrin treatment; type: in vivo, rat; settings: FIGS. 15 and 16
Description: Cells are lysed by sonication for 10 seconds in protease inhibitory buffer. Heme-oxygenase is assayed as previously described. […] The reaction is started by the addition of the heme, incubated at 37° C. for 30 minutes and stopped by the addition of excess cold heme and bilirubin followed by placing on ice. 2 μl of reaction mixture is spotted twice onto a silica gel thin-layer chromatography sheet. The chromatogram is developed using a 20:1 dilution of chloroform:acetic acid. Spots corresponding to hem and bilirubin are were cut out and placed in 10 ml of scintillation fluid to be counted. […] The activity is expressed as pmoles bilirubin/mg protein/hour, n=9. Results are expressed as the mean ± s.e.mean.

[4] = tested on: heme-oxygenase (brain homogenates); test: heme-oxygenase activity in rat brain homogenates; type: biochemical; settings: for effect on brain HO activity: 0.1-10 mM (sodium nitroprusside 0.001-10 mM)
Description: (§1) The brains and spleens of male Wistar rats (160±20 g, Tuck Co. UK) were homogenized using a glass homogenizer, in protease inhibitory buffer; phenylmethylsulfonyl fluoride 1 mM, pepstatin A 1.5 mM and leupeptin 0.2 mM, in 10 mM phosphate buffered saline pH 7.3. Protein determinations were carried by the Bradford method, bovine serum albumin was used as protein standard.
(§2) Heme-oxygenase activity was assayed as previously described (Sierra, E. E. et al., (1992) Analytical Biochem. 200, 27-30).
(§3) Briefly, the 15 μl reaction mixture consisted of 11.2 μM [^14 C] heme (specific activity 54 Ci/mol), 1 mM NADPH, 2 mM glucose-6-phosphate, 0.1 units of glucose-6-phosphate dehydrogenase, 3 mg/ml liver cytosolic protein, 100-50 μg of sample protein and the relevant concentration of test drugs; L-arginine, D-arginine, NG-nitro-L-arginine methyl ester (L-NAME) or sodium nitroprusside. The reaction mixture containing the test drugs was allowed to equilibrate at 37° C. for 15 mins before the reaction was started by the addition of the heme. The reaction was terminated after 30 mins by the addition of excess cold heme and bilirubin and placed on ice. The reaction mixture was spotted on to the silica gel thin-layer chromatography sheet by 2, 2 μl applications. All samples were run in duplicate. The chromatogram was developed using a 20:1 dilution of chloroform:acetic acid. Spots corresponding to heme and bilirubin were excised and placed in 10 ml of scintillation fluid to be counted. The data was calculated as pmols bilirubin formed/mg protein/hour.
(§4) Statistical analysis of the raw data was carried using Student's unpaired t test. Results expressed as mean ± s.e.mean with P<0.05 considered as significant.

[5] = tested on: heme-oxygenase (spleen homogenates); test: heme-oxygenase activity in rat spleen homogenates; type: biochemical; settings: 0.1-10 mM (sodium nitroprusside 0.001-10 mM)
Description: as §1, §2, §3, §4

[6] = 6 hours after carrageenin, SnPP 2 x 40 μmoles/kg s.c. (-18 and 0 h) or FePP 15 mg/kg i.v. (-18 h)
[7] = 6 hours after carrageenin, SnPP 2 x 40 μmoles/kg s.c. or FePP 15 mg/kg i.v.
[8] = 24 hours after carrageenin, SnPP 2 x 40 μmoles/kg s.c. or FePP 15 mg/kg i.v.
[9] = 24 hours, FePP 15 mg/kg i.v., P<0.001
[10] = 24 hours, FePP 3 μmole/kg, 1 dose s.c. 18 hours before

| Structure (SMILES) | Exudate Volume [1, 6] | Total Cells 10^6 [1, 7] | effect on inflammation (exudate volumes and cell numbers) at 6 hours [1] | Exudate Volume [1, 8] | Total Cells 10^6 [1, 8] | effect on the inflammatory lesion compared to vehicle control at 6 hours [2] | effect on inflammation at 24 hours (dose dependence) ([2]; 24 hours) | HO activity of inflammatory pellets after treatment [3] | effect on brain HO activity [4] | effect on spleen HO activity [5] | further results |
| --- | --- | --- | --- | --- | --- | --- | --- | --- | --- | --- | --- |
| C=CC1=C(C)c2cc3[n-]c(cc4[n-]c(cc5nc(cc1n2)C(C)=C5C=C)c(C)c4CCC(=O)O)c(CCC(=O)O)c3C.[Cl-].[Fe+3] [FePP, Ferriprotoporphrin IX chloride] | 0.99 ± 0.11 mL | 50 ± 8 10^6 | not significantly modified | 0.37 ± 0.07 mL | 45 ± 6 10^6 | Neither SnPP or FePP treatments had an effect | dose dependant suppression of inflammatory cell number and exudate volume | increase |  |  | effect on inflammation (exudate volumes and cell numbers) at 6 hours ([1]; listed as hemin): no significant effect; decrease of cell number (total cells) compared to vehicle control [1, 9]: 50%; decrease of exudate volume (cell exudate) compared to vehicle control [1, 9]: 73%; decrease of exudate volume (cell exudate) compared to vehicle control ([1]; 24 hours, FePP 15 mg/kg i.v., P<0.001, listed as hemin): 83%; degree of suppression compared with conventional anti-inflammatories or steroids in this model ([2]; 24 hours): greater than that seen with optimal doses of conventional anti-inflammatories or steroids; reduction of exudate volume compared to vehicle control [2, 10]: 55%; reduction of inflammatory cell number compared to vehicle control [2, 10]: 90% |
| N=C(N)NCCC[C@H](N)C(=O)O [L-arginine] |  |  |  |  |  |  |  |  | dose dependent decrease; also recorded: decreased heme-oxygenase activity | not modified; also recorded: no effect | decrease in brain HO activity ([4]; 10 mM, vs control without compound, 30 min): 75% |
| N=C(N)NCCC[C@@H](N)C(=O)O [D-arginine] |  |  |  |  |  |  |  |  | no significant effect | not modified; also recorded: no effect |  |
| COC(=O)[C@@H](N)CCCNC(=N)N[N+](=O)[O-] [L-NAME, NG-nitro-L-arginine methyl ester] |  |  |  |  |  |  |  |  | dose dependent increase; also recorded: increased activity | not modified; also recorded: no effect | increase in brain HO activity ([4]; 5 mM L-NAME, vs control without compound): 80% |
| C=CC1=C(C)C2=Cc3c(C=C)c(C)c4[n]3[Sn]([Cl])([Cl])[n]3c(c(C)c(CCC(=O)O)c3=CC3=NC(=C4)C(C)=C3CCC(=O)O)=CC1=N2 [SnPP, Tin protoporphyrin dichloride] | 1.59 ± 0.12 mL | 67 ± 6 10^6 | not significantly modified | 1.80 ± 0.21 mL | 58 ± 6 10^6 | Neither SnPP or FePP treatments had an effect | dose dependant increase in inflammatory exudate | reduction of HO activity |  |  | effect on inflammation (exudate volumes and cell numbers) at 6 hours ([1]; listed as tin Protoporphyrin-IX): no significant effect; increase of exudate volume (cell exudate) compared to vehicle control ([1]; 24 hours, P<0.001): 128%; increase of exudate volume (cell exudate) compared to vehicle control ([1]; 24 hours, P<0.001, listed as tin Protoporphyrin-IX): 135%; increase of exudate volume compared to vehicle control ([2]; 24 hours, 3 μmoles/kg SnPP, 2 doses s.c.): 70%; effect on exudate volume at highest dose ([2]; 24 hours, SnPP 30 μmoles/kg): increased exudate volume further; effect on inflammatory cell number at highest dose ([2]; 24 hours, SnPP 30 μmoles/kg, likely a toxic effect): decrease in inflammatory cell number |

Source: patent US6066333A, “Pharmaceutical control of inflammation” (William Harvey Research Limited, priority 1994, dated 2000)
